The values that follow come from US20160324863A1, “TARGETED CANCER TREATMENT BY HSP90 INHIBITORS GANETESPIB AND NVP-AUY922” (SYNTA PHARMACEUTICALS CORP., priority 2014, published 2016).

Data set [1] relates to LB831-BLC bladder cancer cell line. The data set can be described thus: CellTiter-Glo viability assay, LB831-BLC. The note with it: FGFR3 status WT, 72 hours, read-out: Ganetespib IC50. Format: cell-based. As to the method:
Cellular viability was assessed using the CellTiter-Glo Luminescent Cell Viability Assay (Promega) according to manufacturer protocols. Bladder cancer cell lines were seeded into 96-well plates based on optimal growth rates determined empirically for each line. Twenty-four hours after plating, cells were dosed with graded concentrations of ganetespib for 72 hours. CellTiter-Glo was added (50% v/v) to the cells, and the plates incubated for 10 minutes prior to luminescent detection in a SpectraMax Plus 384 microplate reader (Molecular Devices). Data were normalized to percent of control and IC50 values used to determine the sensitivity of each line. For the comparative analyses with ganetespib and BGJ398, RT112 cells were treated with graded concentrations of each compound for 72 hours and cell viability measured as above. For the evaluation of apoptotic induction, caspase activity was assessed using the Caspase-Glo 3/7 assay (Promega) according to manufacturer protocols. Twenty-four hours after plating, RT112 cells were treated with graded concentrations of ganetespib for 24 hours. Caspase-Glo was added to cells (50% v/v) and the plates incubated for 1 hour prior to luminescent detection.
In general terms: ATP-based viability assays read luminescence as a measure of living cells.

For data set [2], the system named is SW780 cells. The data set can be described thus: LC-MS/MS bioanalysis of ganetespib and glucuronidated metabolites in SW780 cells. Type of data set: in vitro ADME. The following applies: 1 μM ganetespib, by 24 hours. As to the method: In the first set of experiments, RT112 and SW780 cells were treated with graded concentrations of ganetespib or 17-DMAG (10-1000 nM) for 1 and 24 hours. Cell lysates were prepared for measurement of intracellular concentrations of the respective HSP90 inhibitors. RT112 and SW780 cells were also treated with 1 μM ganetespib for 15 minutes, 1, 4, 8 and 24 hours. At each time point cell lysates were prepared and media was collected for analysis of intracellular and secreted concentrations of ganetespib and its glucuronidated metabolites. Bioanalysis was performed on equal protein concentrations from cell lysates or equal volumes of media. All samples were ultimately extracted by protein precipitation and analyzed by LC-MS/MS using an Agilent 1100 HPLC interfaced to an API 4000 tandem mass spectrometer (Applied Biosystems). A Phenomenex Kinetex 2.6 μm C18 (30×2.1 mm) column was used with a run time of 3.5 min per sample.

Take `CC(C)c1cc(-c2n[nH]c(=O)n2-c2ccc3c(ccn3C)c2)c(O)cc1O` [ganetespib]: the IC50 – broadly, the concentration needed to halve the response being measured – in data set [1] is 34 nM. The intracellular ganetespib concentrations result in data set [2] is on record as “undetectable”.
